Like-named read-outs stand apart in the source and are kept apart here. Blank lines part the entries; values can stand above or below the compound they belong to.
Legend:
[1] = parameters: method as in Trial NCT00039988; conditions: add-on therapy to capaxone (glatiramir acetate), RRMS patients; ref Trial NCT00039988; cited from earlier work
[2] = tested on: acutely dissociated and purified rat OPCs; test: Acute OL differentiation assay (MBP expression/cell, immunofluorescent image quantification); type: cell-based; conditions: for promotion of OL differentiation (in words): MBP expression versus 0.1 % DMSO negative control; for activation at 2 µM / activation at 10 µM / activation at 0.08 µM / activation at 0.4 µM / EC50: Rattus norvegicus; for activation at 2 µM / activation at 10 µM / activation at 0.08 µM / activation at 0.4 µM: relative to quetiapine, sheet "All OLga data"; for activation at 0.08 µM: test compound at 0.08 uM, read-out: 0.08 uM (% Quet); for hit in OL differentiation assay, MRF-TMC: ● = confirmed hit in this paper's assay; for EC50: average EC50 for induction of OL differentiation from independent biological replicates, eight concentrations
How it was run: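 Oligodendrocyte precursor cells were enriched from P6-P7 Sprague–Dawley rat brains by immunopanning (RAN-2 and GalC depletion, O4 selection), plated at 5000 cells/well in serum-free, mitogen-free differentiation media on PDL/laminin 96-well view plates, centrifuged at 200×g, and pre-incubated 1–2 h before test compounds were added in quadruplicate. On DIV4, cells were fixed, stained for MBP and DAPI, imaged automatically, and MBP expression per cell was quantified.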

expanded OPCs = test: cells; conditions: for viability at 0.1 µM / viability at 1 µM / viability at 10 µM: Rattus norvegicus, 72 h; for 0.1 µM (% DMSO) / 1 µM (% DMSO) / 10 µM (% DMSO): alamarBlue viability of expanded OPCs, relative to DMSO control; for 0.1 µM (% DMSO): compound at 0.1 µM; for 1 µM (% DMSO): compound at 1 µM; for 10 µM (% DMSO): compound at 10 µM
How it was run: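 Expanded OPCs seeded at 10,000 cells/well in differentiation media, then exposed to NCC library compounds at 10, 1 and 0.1 µM (quadruplicate, 0.1% DMSO) for three days. Viability read as alamarBlue fluorescence (560/590 nm) after 4 h at 37 °C; tunicamycin 5 ng/ml served as toxicity control.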

Rat OPCs = conditions: ● = hit reported; cited from earlier work
Rat OPCs, Mouse OPCs = conditions: ● = hit reported; cited from earlier work
Mouse OPCs = conditions: ● = hit reported; cited from earlier work
[3] = in vivo models; cited from earlier work
[4] = clinical trial of MS; cited from earlier work
transplanted hOPCs = tested on: transplanted hOPCs; parameters: method as in PMID 25716865; conditions: hypomyelinated shiverer/rag2 brain; cited from earlier work
[5] = 2 uM test compound, read-out: OL differentiation, 2 uM (% Quet)
[6] = 10 uM test compound, read-out: OL differentiation, 10 uM (% Quet)
[7] = read-out: 0.1 µM (% DMSO), alamarBlue viability, NCC library compound at 0.1 µM, sheet "All Tox data"
[8] = read-out: 1 µM (% DMSO), alamarBlue viability, NCC library compound at 1 µM, sheet "All Tox data"
[9] = read-out: 10 µM (% DMSO), alamarBlue viability, NCC library compound at 10 µM, sheet "All Tox data"
[10] = test compound at 0.4 uM, NCC library screen, read-out: 0.4 uM (% Quet)
[11] = test compound at 2 uM, NCC library screen, read-out: 2 uM (% Quet)
[12] = read-out: 0.1 µM (% DMSO), alamarBlue viability of expanded OPCs, compound at 0.1 µM, sheet All Tox data
[13] = read-out: 1 µM (% DMSO), alamarBlue viability of expanded OPCs, compound at 1 µM, sheet All Tox data
[14] = read-out: 10 µM (% DMSO), alamarBlue viability of expanded OPCs, compound at 10 µM, sheet All Tox data

SMILES: CC(C)(C)NCC(O)c1ccc(O)c(CO)c1 (stereo not drawn) [albuterol, reference compound]
- clinical outcomes [1]: improved clinical outcomes
- promotion of OL differentiation (in words) [2]: not a hit in our screen
- activation at 2 µM [2, 5]: -6%
- activation at 10 µM [2, 6]: 18.6%

SMILES: OCCN1CCN(CCCN2c3ccccc3Sc3ccc(C(F)(F)F)cc32)CC1 [Fluphenazine, reference compound]
- viability at 0.1 µM (expanded OPCs; [7]): 159%
- viability at 1 µM (expanded OPCs; [8]): 46.8%
- viability at 10 µM (expanded OPCs; [9]): 9.6%
- hit in OL differentiation assay, Deshmukh (Rat OPCs): ●
- activation at 0.08 µM ([2]; NCC library screen): 92.6%
- activation at 0.4 µM [2, 10]: -2.7%
- hit in OL differentiation assay, MRF-TMC [2]: ●

SMILES: CCN(CC)CC#CCOC(=O)C(O)(c1ccccc1)C1CCCCC1 (stereo not drawn) [Oxybutynin, reference compound]
- hit in OL differentiation assay, Mei (Rat OPCs, Mouse OPCs): ●
- 0.1 µM (% DMSO) (expanded OPCs): 129.9 % DMSO
- 1 µM (% DMSO) (expanded OPCs): 169.5 % DMSO
- 10 µM (% DMSO) (expanded OPCs): 57.5 % DMSO
- hit in OL differentiation assay, Deshmukh (Rat OPCs): ●
- activation at 2 µM [2, 11]: 91.6%
- hit in OL differentiation assay, MRF-TMC [2]: ●

- EC50 [2]: 0.1 µM
SMILES: OCCN1CCN(CCCN2c3ccccc3Sc3ccc(Cl)cc32)CC1 [Perphenazine, reference compound]
- 0.1 µM (% DMSO) (expanded OPCs): 154.3 % DMSO
- 1 µM (% DMSO) (expanded OPCs): 47.1 % DMSO
- 10 µM (% DMSO) (expanded OPCs): 9.2 % DMSO
- hit in OL differentiation assay, Deshmukh (Rat OPCs): ●
- activation at 0.08 µM ([2]; NCC library screen): 95.7%
- activation at 0.4 µM [2, 10]: 79%
- hit in OL differentiation assay, MRF-TMC [2]: ●

- EC50 [2]: 0.2 µM
SMILES: CN1CCN(CCCN2c3ccccc3Sc3ccc(C(F)(F)F)cc32)CC1 [Trifluoperazine, reference compound]
- viability at 0.1 µM (expanded OPCs; [12]): 116%
- viability at 1 µM (expanded OPCs; [13]): 85.8%
- viability at 10 µM (expanded OPCs; [14]): 11.3%
- hit in OL differentiation assay, Deshmukh (Rat OPCs): ●
- activation at 0.4 µM ([2]; 0.4 uM test compound, read-out: OL differentiation, 0.4 uM (% Quet)): 155%
- activation at 2 µM [2, 5]: -103%
- hit in OL differentiation assay, MRF-TMC [2]: ●

SMILES: CN1[C@@H]2CC[C@H]1C[C@@H](OC(c1ccccc1)c1ccccc1)C2 [Benztropine]
- hit in OL differentiation assay, Najm (Mouse OPCs): ●
- hit in OL differentiation assay, Mei (Rat OPCs, Mouse OPCs): ●
- hit in OL differentiation assay, Deshmukh (Rat OPCs): ●
- stimulating remyelination [3]: efficacy in stimulating remyelination
- hit in OL differentiation assay, MRF-TMC [2]: ●

SMILES: C[C@]12CC[C@@H]3c4ccc(O)cc4CC[C@H]3[C@@H]1C[C@@H](O)[C@@H]2O [estriol]
- lesion numbers and volumes [4]: reducing the lesion numbers and volumes

SMILES: CN1CCC[C@@H]1CCO[C@](C)(c1ccccc1)c1ccc(Cl)cc1 [Clemastine]
- hit in OL differentiation assay, Mei (Rat OPCs, Mouse OPCs): ●
- hit in OL differentiation assay, Deshmukh (Rat OPCs): ●
- stimulating remyelination [3]: efficacy in stimulating remyelination
- promotion of OL differentiation (in words) [2]: could promote OL differentiation in our assay similar to benztropine
- hit in OL differentiation assay, MRF-TMC [2]: ●

SMILES: O=C(O[C@H]1CN2CCC1CC2)N1CCc2ccccc2[C@@H]1c1ccccc1 [solifenacin]
- oligodendrocyte differentiation of transplanted hOPCs (transplanted hOPCs): promoted oligodendrocyte differentiation of transplanted hOPCs

- EC50 [2]: 0.4 µM
SMILES: OCc1cc(C(O)CNCCCCCCOCCCCc2ccccc2)ccc1O (stereo not drawn) [Salmeterol, reference compound]
- viability at 0.1 µM (expanded OPCs; [7]): 115%
- viability at 1 µM (expanded OPCs; [8]): 108%
- viability at 10 µM (expanded OPCs; [9]): 9.3%
- hit in OL differentiation assay, Deshmukh (Rat OPCs): ●
- activation at 0.4 µM [2, 10]: 55.3%
- activation at 2 µM [2, 11]: -32.4%
- hit in OL differentiation assay, MRF-TMC [2]: ●

SMILES: O[C@@H]1CCCC[C@H]1N1CCC(c2ccccc2)CC1 (racemic) [Vesamicol, reference compound]
- hit in OL differentiation assay, Najm (Mouse OPCs): ●
- viability at 0.1 µM (expanded OPCs; [12]): 94.3%
- viability at 1 µM (expanded OPCs; [13]): 120%
- viability at 10 µM (expanded OPCs; [14]): 146%
- activation at 2 µM [2, 5]: 80.7%
- activation at 10 µM [2, 6]: 151%
- EC50 [2]: 1.4 µM
- hit in OL differentiation assay, MRF-TMC [2]: ●

SMILES: OCCOCCN1CCN(C2=Nc3ccccc3Sc3ccccc32)CC1 [Quetiapine]
- hit in OL differentiation assay, Najm (Mouse OPCs): ●
- hit in OL differentiation assay, Mei (Rat OPCs, Mouse OPCs): ●
- hit in OL differentiation assay, MRF-TMC [2]: ●

SMILES: CC(C)[N+]1(C)[C@@H]2CC[C@H]1C[C@@H](OC(=O)C(CO)c1ccccc1)C2 (stereo partly drawn) [Ipatropium, reference compound]
- hit in OL differentiation assay, Mei (Rat OPCs, Mouse OPCs): ●
- viability at 0.1 µM (expanded OPCs; [7]): 92.6%
- viability at 1 µM (expanded OPCs; [8]): 101%
- viability at 10 µM (expanded OPCs; [9]): 123%
- hit in OL differentiation assay, Deshmukh (Rat OPCs): ●
- activation at 2 µM [2, 11]: 21.2%
- activation at 10 µM ([2]; test compound at 10 uM, NCC library screen, read-out: 10 uM (% Quet)): 38.6%
- EC50 [2]: 8.5 µM
- hit in OL differentiation assay, MRF-TMC [2]: ●

SMILES: CC/C(=C(\c1ccccc1)c1ccc(OCCN(C)C)cc1)c1ccccc1 [Tamoxifen, reference compound]
- hit in OL differentiation assay, Najm (Mouse OPCs): ●
- 0.1 µM (% DMSO) (expanded OPCs): 162.2 % DMSO
- 1 µM (% DMSO) (expanded OPCs): 55.1 % DMSO
- 10 µM (% DMSO) (expanded OPCs): 9.5 % DMSO
- activation at 0.08 µM ([2]; NCC library screen): 117%
- activation at 0.4 µM [2, 10]: -49.8%
- hit in OL differentiation assay, MRF-TMC [2]: ●

Reference: PMC5011342, “A high throughput drug screening assay to identify compounds that promote oligodendrocyte differentiation using acutely dissociated and purified oligodendrocyte precursor cells” (BMC Research Notes, 2016)
